Values joined by “and” are separate entries in the source; they are usually repeats but may differ in a detail not shown here. Identical values can stand only once.
Columns and labels:
[1] = biological target: T1, androgen receptor (Rattus norvegicus, UniProt P15207); assay: L929 Androgen Receptor Functional Assay, Adenovirus Transduction; type: cell-based; parameters: expressed in transfected cells; host or cells: L929 cells transduced with adenovirus AdEasy+rAR; conditions: concentration of 3000 nM, 3 µM
T1 sequence (P15207 1-902): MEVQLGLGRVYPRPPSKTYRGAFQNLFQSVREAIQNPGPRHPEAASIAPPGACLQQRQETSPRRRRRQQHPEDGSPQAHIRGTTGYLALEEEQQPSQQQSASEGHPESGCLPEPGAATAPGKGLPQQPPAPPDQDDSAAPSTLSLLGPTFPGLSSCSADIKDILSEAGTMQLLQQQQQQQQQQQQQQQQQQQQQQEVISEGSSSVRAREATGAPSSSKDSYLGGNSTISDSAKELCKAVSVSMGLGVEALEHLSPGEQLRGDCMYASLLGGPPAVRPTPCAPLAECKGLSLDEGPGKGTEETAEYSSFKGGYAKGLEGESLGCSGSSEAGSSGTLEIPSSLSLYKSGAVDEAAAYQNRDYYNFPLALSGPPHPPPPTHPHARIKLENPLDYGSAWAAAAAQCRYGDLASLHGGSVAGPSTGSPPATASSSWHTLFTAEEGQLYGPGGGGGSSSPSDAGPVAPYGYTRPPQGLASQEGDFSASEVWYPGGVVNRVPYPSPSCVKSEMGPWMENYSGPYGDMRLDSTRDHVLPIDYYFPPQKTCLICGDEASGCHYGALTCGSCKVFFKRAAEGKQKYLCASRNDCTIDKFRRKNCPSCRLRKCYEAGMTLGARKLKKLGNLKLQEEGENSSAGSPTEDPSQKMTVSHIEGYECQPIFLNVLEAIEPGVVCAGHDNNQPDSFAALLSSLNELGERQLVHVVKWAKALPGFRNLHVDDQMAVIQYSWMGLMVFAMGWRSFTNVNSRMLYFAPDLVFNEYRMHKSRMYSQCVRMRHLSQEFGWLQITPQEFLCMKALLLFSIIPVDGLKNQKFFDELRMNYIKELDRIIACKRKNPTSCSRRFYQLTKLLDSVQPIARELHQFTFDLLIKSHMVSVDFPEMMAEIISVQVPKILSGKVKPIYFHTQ
Experimental: L929 cells were plated in 96-well plates at 20,000 cells per well, in DMEM/F12 (GIBCO) containing 10% (v/v) charcoal-treated fetal bovine serum (Hyclone) and lacking phenol red. The plates were then incubated overnight at 37° C. in 5% (v/v) humidified CO2.
Test compound dilutions were prepared in 100% (v/v) DMSO, if necessary. Each dilution was made to 1250× the final desired assay concentration.
First, 2 mL of DMEM/F12 lacking phenol red was pipetted into the wells of a 2-mL 96-well assay block. Next, 4 μL of the 1250× test compound dilutions were pipetted into each well of the assay block. The mixtures within the well were then carefully mixed by pipette.
In a 15 mL or 50 mL sterile centrifuge tube, a 2.5 nM (2.5×) dilution of R1881 (methyl-trienolone) in DMEM/F12 lacking phenol red was prepared.
In a second 15 mL or 50 mL centrifuge tube a solution containing an equal volume of DMEM to the first and an equal volume of 100% (v/v) DMSO to the volume of R1881 used in the first tube was prepared.
In a 15 mL or 50 mL sterile centrifuge tube, a dilution in DMEM/F12 of the adenovirus AdEasy+rAR at an moi of 1:500 per well was prepared.
The medium was removed from the 96-well plates by inversion and dried, inverted, very briefly. As soon as possible after medium removal, 40 μL of the diluted unlabeled test compound was added to each well, in duplicate. To each well designated for antagonist testing was added 40 μL of the 2.5 nM R1881 dilution to the wells for antagonist testing. To each well designated for agonist testing was added 40 μL of the DMSO dilution. Then 20 μL of the diluted adenovirus were added to all wells. The plates were incubated for 48 hours at 37° C. in 5% (v/v) humidified CO2.
To each well was added 100 μL of Steady-Glo luciferase assay substrate (Promega) and the plates were placed on a rotary shaker for 1 min. The plates were then incubated at room temperature in the dark for one hour. The contents of each well were then transferred to a white microtiter plate (Packard) and read on a Luminoskan Ascent (Thermo Lab Systems).
L929 AR percent activity was determined by testing dilutions of the test compound using a concentration of 3000 nM unless otherwise noted. L929 percent inhibition was determined by testing dilutions of the test compound using a concentration of 3000 nM. […] Luciferase activity per well were measured and EC50s and IC50s determined by linear regression.

[2] = system: castrated male Sprague Dawley rats; assay: Ventral Prostate and Seminal Vesicle Weight In Vivo Assay; parameters: species or system rat; key: active: non weight adjusted prostate weight was ≦40 mg or the % Inhibition prostate weight, body weight adjusted was ≧40% @ 2 mg/day dosage; inactive: they did not meet the specified criteria defined above; conditions: immature castrated male rats, once daily for five days, with testosterone propionate 2 mg/kg subcutaneously
Experimental: Immature (approximately 50 g) castrated male Sprague Dawley rats (Charles River) were treated once daily for five days with test compound (usually given orally at 40 mg/kg in a volume of 0.3 mL, in 30% cyclodextrin or 0.5% methylcellulose vehicle) and with testosterone propionate (given subcutaneously by injection at the nape of the neck at 2 mg/kg, in a volume of 0.1 mL in sesame oil). On the sixth day, the rats were euthanized by asphyxiation in carbon dioxide. Ventral prostates and seminal vesicles were removed and their wet weights determined.
A test compound was said to be “active” if the non weight adjusted prostate weight was ≦40 mg or the % Inhibition prostate weight, body weight adjusted was ≧40% @ 2 mg/day dosage.

Compound: CCSCC(O)c1cc2cc([N+](=O)[O-])c(C(F)(F)F)cc2[nH]1 (racemic) [compound 158]
- % Activity ([1]; L929 agonist testing): 3% and 2%
- % Inhibition ([1]; L929 antagonist testing with R1881): 21% and 29%
- active / inactive: inhibition of testosterone-enhanced prostate weight [2]: inactive

Source: patent US9434688B2, “Indole derivatives as selective androgen receptor modulators (SARMS)” (Janssen Pharmaceutica, NV, priority 2004, dated 2016)
